Data as given in patent US10828315B2 (Madrigal Pharmaceuticals, Inc., priority 2013, dated 2020).

Conditions: mouse, plasma, 1 h, 10 µM

Row | Structure (SMILES) | % Remaining (1 h) [%]
1 | CCNC(=O)c1nnc(-c2cc(C(C)C)c(O)cc2O)n1-c1ccc(CN2CCC(C(=O)N3CCC[C@H]3C(=O)Nc3cccc4c3CN(C3CCC(=O)NC3=O)C4=O)CC2)cc1 (stereo partly drawn) [SDC-TRAP-0164, 5-(2,4-dihydroxy-5-isopropylphenyl)-4-(4-((4-((2S)-2-((2-(2,6-dioxopiperidin-3-yl)-1-oxoisoindolin-4-yl)carbamoyl)pyrrolidine-1-carbonyl)piperidin-1-yl)methyl)phenyl)-N-ethyl-4H-1,2,4-triazole-3-carboxamide] | 98.0
2 | CC(C)c1cc(-c2nnc(O)n2-c2ccc(CC(=O)N(C)CCOC(=O)Nc3cccc4c3CN(C3CCC(=O)NC3=O)C4=O)cc2)c(O)cc1O (stereo not shown) [SDC-TRAP-0127, 2-(2-(4-(3-(2,4-dihydroxy-5-isopropylphenyl)-5-hydroxy-4H-1,2,4-triazol-4-yl)phenyl)-N-methylacetamido)ethyl(2-(2,6-dioxopiperidin-3-yl)-1-oxoisoindolin-4-yl)carbamate] | 87.3
3 | CCNC(=O)c1nnc(-c2cc(C(C)C)c(O)cc2O)n1-c1ccc(CN2CCC(C(=O)N[C@H](C(=O)Nc3cccc4c3CN(C3CCC(=O)NC3=O)C4=O)C(C)C)CC2)cc1 (stereo partly drawn) [SDC-TRAP-0163, 1-(4-(3-(2,4-dihydroxy-5-isopropylphenyl)-5-(ethylcarbamoyl)-4H-1,2,4-triazol-4-yl)benzyl)-N-((2S)-1-((2-(2,6-dioxopiperidin-3-yl)-1-oxoisoindolin-4-yl)amino)-3-methyl-1-oxobutan-2-yl)piperidine-4-carboxamide] | 93.0
4 | CCNC(=O)c1nnc(-c2cc(C(C)C)c(O)cc2O)n1-c1ccc2c(c1)CN(C(=O)c1ccc(S(=O)(=O)Oc3ccc4nc5c(c(CC)c4c3)Cn3c-5cc4c(c3=O)COC(=O)C4(O)CC)cc1)C2 (stereo not shown) [SDC-TRAP-0393, 4,11-diethyl-4-hydroxy-3,14-dioxo-3,4,12,14-tetrahydro-1H-pyrano[3′,4′:6,7]indolizino[1,2-b]quinolin-9-yl 4-(5-(3-(2,4-dihydroxy-5-isopropylphenyl)-5-(ethylcarbamoyl)-4H-1,2,4-triazol-4-yl)isoindoline-2-carbonyl)benzenesulfonate] | 47.8
5 | CCNC(=O)c1nnc(-c2cc(C(C)C)c(O)cc2O)n1-c1ccc(Oc2ccc(C(=O)N[C@@H](CC(C)C)C(=O)Nc3cccc4c3CN(C3CCC(=O)NC3=O)C4=O)cc2)cc1 (stereo partly drawn) [SDC-TRAP-0191, 5-(2,4-dihydroxy-5-isopropylphenyl)-4-(4-(4-(((2S)-1-((2-(2,6-dioxopiperidin-3-yl)-1-oxoisoindolin-4-yl)amino)-4-methyl-1-oxopentan-2-yl)carbamoyl)phenoxy)phenyl)-N-ethyl-4H-1,2,4-triazole-3-carboxamide] | 77.4
6 | CCc1c2c(nc3ccc(OS(=O)(=O)c4ccc(C(=O)N5CCC(CCn6ccc7cc(-n8c(O)nnc8-c8cc(C(C)C)c(O)cc8O)ccc76)CC5)cc4)cc13)-c1cc3c(c(=O)n1C2)COC(=O)C3(O)CC (stereo not shown) [SDC-TRAP-0390, 4,11-diethyl-4-hydroxy-3,14-dioxo-3,4,12,14-tetrahydro-1H-pyrano[3′,4′:6,7]indolizino[1,2-b]quinolin-9-yl 4-(4-(2-(5-(3-(2,4-dihydroxy-5-isopropylphenyl)-5-hydroxy-4H-1,2,4-triazol-4-yl)-1H-indol-1-yl)ethyl)piperidine-1-carbonyl)benzenesulfonate] | 92.5
7 | CC(C)c1cc(-c2nnc(O)n2-c2ccc(N3CCN(C(=O)c4ccc(COC(=O)Nc5cccc6c5CN(C5CCC(=O)NC5=O)C6=O)cc4)CC3)cc2)c(O)cc1O (stereo not shown) [SDC-TRAP-0156, 4-(4-(4-(3-(2,4-Dihydroxy-5-isopropylphenyl)-5-hydroxy-4H-1,2,4-triazol-4-yl)phenyl)piperazine-1-carbonyl)benzyl (2-(2,6-dioxopiperidin-3-yl)-1-oxoisoindolin-4-yl)carbamate] | 90.3
